# How the values were obtained:
# c-Met = target: T1, c-Met (Homo sapiens, UniProt P08581); assay: In vitro c-Met enzymatic assay (HTRF); format: biochemical; details: for IC50: HTRF assay, mean ± SD, triplicate, read-out: IC50 against c-Met; for fold loss of c-Met inhibitory activity compared to 51w: ratio of c-Met IC50 to that of 51w
# T1 construct: purchased Invitrogen (Waltham, MA)
# Experimental: Inhibition of target compounds on c-Met kinase activity was measured by using the homogeneous time-resolved fluorescence (HTRF) assay.
# The tyrosine kinases inhibitory activities of target compounds were evaluated in 384-well microtiter plates using purified kinases purchased from Invitrogen (Waltham, MA) by homogeneous time-resolved fluorescence (HTRF) assay. The HTRF KinEASE TK kit was performed according to the instructions. After the kinases and test compounds were incubated at 25–30 °C for 5 min, the kinase reactions were initiated by addition of 39 μL of kinase reaction buffer solution and incubated at 25–30 °C for 30 min. The reactions were quenched by addition 10 µL mixed detection solution. […] The inhibition rate (%) was calculated using the following equation: inhibition rate = [(activity of enzyme with tested compound – min)/(max – min)] × 100 (max: the enzyme activity in the presence of enzyme, substrates and cofactors; min: the enzyme activity in the presence of substrates, cofactors and in the absence of enzyme). IC50 value was calculated from the inhibition curve using GraphPad Prism 5.0 software (La Jolla, CA).
# A549 = assay: MTT antiproliferative assay, A549; details: Homo sapiens, A549, 48 h, read-out: IC50 A549
# Experimental: (§1) MTT assay was used to determine the cytotoxic activity of target compounds against different cell lines. […] Then, the cells were treated with five doses of test compounds (pre-dissolved in DMSO), and 0.1% DMSO was used as a negative control. […] The results expressed as IC50 were the average of three determinations calculated by using the Bacus Laboratories Incorporated Slide Scanner (Bliss) software.
# HT-29 = assay: MTT antiproliferative assay, HT-29; details: Homo sapiens, HT-29, 48 h, read-out: IC50 HT-29
# Experimental: as §1
# MKN-45 = assay: MTT antiproliferative assay, MKN-45; details: Homo sapiens, MKN-45, 48 h, read-out: IC50 MKN-45
# Experimental: as §1
# MDA-MB-231 = assay: MTT antiproliferative assay, MDA-MB-231; details: Homo sapiens, MDA-MB-231, 48 h, read-out: IC50 MDA-MB-231
# Experimental: as §1
# FHC = assay: MTT cytotoxicity assay, normal FHC cells; details: Homo sapiens, 48 h, read-out: IC50 FHC
# Experimental: as §1
# HUVEC = assay: MTT cytotoxicity assay, normal HUVEC cells; details: Homo sapiens, 48 h, read-out: IC50 HUVEC
# Experimental: as §1
# T1 sequence (P08581 25-1390): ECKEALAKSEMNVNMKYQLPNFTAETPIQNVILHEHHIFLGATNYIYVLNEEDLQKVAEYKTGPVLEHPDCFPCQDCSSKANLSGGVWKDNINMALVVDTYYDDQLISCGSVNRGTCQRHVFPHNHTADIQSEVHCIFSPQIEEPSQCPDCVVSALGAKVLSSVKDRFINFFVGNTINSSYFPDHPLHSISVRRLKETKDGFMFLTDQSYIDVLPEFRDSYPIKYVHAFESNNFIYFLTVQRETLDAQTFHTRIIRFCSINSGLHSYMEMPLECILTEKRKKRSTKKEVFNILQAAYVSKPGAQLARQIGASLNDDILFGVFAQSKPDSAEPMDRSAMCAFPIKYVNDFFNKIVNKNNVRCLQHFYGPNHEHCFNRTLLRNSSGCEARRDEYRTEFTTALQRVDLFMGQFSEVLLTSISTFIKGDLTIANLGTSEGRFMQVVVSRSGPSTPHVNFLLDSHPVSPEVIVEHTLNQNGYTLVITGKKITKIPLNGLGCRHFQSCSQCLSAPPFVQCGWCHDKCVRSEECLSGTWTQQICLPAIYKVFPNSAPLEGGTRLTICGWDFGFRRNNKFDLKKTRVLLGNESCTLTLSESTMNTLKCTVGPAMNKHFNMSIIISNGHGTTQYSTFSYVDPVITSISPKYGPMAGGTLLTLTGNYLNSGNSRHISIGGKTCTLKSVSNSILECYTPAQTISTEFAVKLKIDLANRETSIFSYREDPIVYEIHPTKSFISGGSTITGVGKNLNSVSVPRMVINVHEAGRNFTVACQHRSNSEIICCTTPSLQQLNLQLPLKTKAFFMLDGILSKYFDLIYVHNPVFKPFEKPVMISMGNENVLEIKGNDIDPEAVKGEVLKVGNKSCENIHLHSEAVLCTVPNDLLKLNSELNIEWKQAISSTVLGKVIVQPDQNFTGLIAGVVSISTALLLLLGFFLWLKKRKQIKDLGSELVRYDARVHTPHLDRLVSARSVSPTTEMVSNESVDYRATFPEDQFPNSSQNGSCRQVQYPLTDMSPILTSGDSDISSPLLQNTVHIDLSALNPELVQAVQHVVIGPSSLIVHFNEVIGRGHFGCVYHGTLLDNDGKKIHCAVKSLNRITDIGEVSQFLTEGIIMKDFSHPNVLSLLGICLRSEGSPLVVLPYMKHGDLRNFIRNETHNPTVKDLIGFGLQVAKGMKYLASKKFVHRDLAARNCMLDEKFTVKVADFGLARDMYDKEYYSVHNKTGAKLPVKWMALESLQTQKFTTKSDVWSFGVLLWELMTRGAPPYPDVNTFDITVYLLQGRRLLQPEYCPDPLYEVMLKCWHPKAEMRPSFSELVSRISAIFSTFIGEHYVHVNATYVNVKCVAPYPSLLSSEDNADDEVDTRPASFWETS
SMILES,IC50 (c-Met) [µM],melting point [°C],IC50 (A549) [µM],IC50 (HT-29) [µM],IC50 (MKN-45) [µM],IC50 (MDA-MB-231) [µM],IC50 (FHC) [µM],IC50 (HUVEC) [µM],fold loss of c-Met inhibitory activity compared to 51w (c-Met) [fold]
"COc1cc2nccc(Oc3ccc(NC(=O)c4nc(-c5ccccc5)ns4)cc3)c2cc1OC [Compound 51a, N-(4-((6,7-Dimethoxyquinolin-4-yl)oxy)phenyl)-3-phenyl-1,2,4-thiadiazole-5-carboxamide]",0.0566 ± 0.00482,145 to 147,26.4 ± 1.24,24.4 ± 1.68,9.25 ± 0.86,> 50,> 100,> 100,
"O=C(Nc1ccc(Oc2ccnc(Cl)c2)c(F)c1)c1nc(-c2ccc(F)cc2)cs1 [Compound 51aa, N-(4-((2-Chloropyridin-4-yl)oxy)-3-fluorophenyl)-4-(4-fluorophenyl)thiazole-2-carboxamide]",0.0156 ± 0.00243,150 to 152,4.83 ± 0.72,4.36 ± 0.38,0.95 ± 0.18,11.7 ± 1.39,24.6 ± 4.23,15.3 ± 2.16,
"O=C(Nc1ccc(Oc2ccnc(Cl)c2)c(F)c1)c1nc(-c2cccc(F)c2)cs1 [Compound 51ab, N-(4-((2-Chloropyridin-4-yl)oxy)-3-fluorophenyl)-4-(3-fluorophenyl)thiazole-2-carboxamide]",0.0232 ± 0.00216,189 to 191,6.02 ± 0.87,6.95 ± 0.82,1.49 ± 0.63,10.1 ± 1.88,20.2 ± 3.62,12.7 ± 0.83,
"O=C(Nc1ccc(Oc2ccnc(Cl)c2)c(F)c1)c1nc(-c2ccccc2F)cs1 [Compound 51ac, N-(4-((2-Chloropyridin-4-yl)oxy)-3-fluorophenyl)-4-(2-fluorophenyl)thiazole-2-carboxamide]",0.0185 ± 0.00305,168 to 170,7.54 ± 0.62,9.53 ± 0.75,1.94 ± 0.26,18.1 ± 2.14,31.3 ± 2.63,19.4 ± 0.83,
"O=C(Nc1ccc(Oc2ccnc(Cl)c2)c(F)c1)c1nc(-c2ccc(Cl)cc2)cs1 [Compound 51ad, 4-(4-Chlorophenyl)-N-(4-((2-chloropyridin-4-yl)oxy)-3-fluorophenyl)thiazole-2-carboxamide]",0.0178 ± 0.00182,167 to 169,6.75 ± 0.55,8.04 ± 0.93,1.74 ± 0.23,15.2 ± 1.46,26.5 ± 1.28,18.5 ± 2.04,
"O=C(Nc1ccc(Oc2ccnc(Cl)c2)c(F)c1)c1nc(-c2cccc(Cl)c2)cs1 [Compound 51ae, 4-(3-Chlorophenyl)-N-(4-((2-chloropyridin-4-yl)oxy)-3-fluorophenyl)thiazole-2-carboxamide]",0.0234 ± 0.00361,171 to 173,7.08 ± 0.95,9.62 ± 1.56,1.95 ± 0.68,19.2 ± 2.35,24.5 ± 1.84,13.1 ± 0.95,
"O=C(Nc1ccc(Oc2ccnc(Cl)c2)c(F)c1)c1nc(-c2ccc(Br)cc2)cs1 [Compound 51af, 4-(4-Bromophenyl)-N-(4-((2-chloropyridin-4-yl)oxy)-3-fluorophenyl)thiazole-2-carboxamide]",0.0192 ± 0.00144,192 to 194,8.23 ± 1.42,11.7 ± 1.63,2.06 ± 0.45,20.5 ± 3.65,21.6 ± 2.82,11.5 ± 0.83,
"O=C(Nc1ccc(Oc2ccnc(Cl)c2)c(F)c1)c1nc(-c2ccc(C(F)(F)F)cc2)cs1 [Compound 51ag, N-(4-((2-Chloropyridin-4-yl)oxy)-3-fluorophenyl)-4-(4(trifluoromethyl)phenyl)thiazole-2-carboxamide]",0.0394 ± 0.00525,212 to 214,12.4 ± 2.85,20.4 ± 3.02,5.84 ± 1.21,30.6 ± 2.64,,43.2 ± 3.53,
"O=C(Nc1ccc(Oc2ccnc(Cl)c2)c(F)c1)c1nc(-c2ccc(Cl)c(Cl)c2)cs1 [Compound 51ah, N-(4-((2-Chloropyridin-4-yl)oxy)-3-fluorophenyl)-4-(3,4-dichlorophenyl)thiazole-2-carboxamide]",0.00926 ± 0.00134,195 to 197,3.17 ± 0.51,2.78 ± 0.49,0.53 ± 0.42,7.29 ± 1.22,20.4 ± 1.86,12.4 ± 0.85,
"O=C(Nc1ccc(Oc2ccnc(Cl)c2)c(F)c1)c1nc(-c2ccc3ccccc3c2)cs1 [Compound 51ai, N-(4-((2-Chloropyridin-4-yl)oxy)-3-fluorophenyl)-4-(naphthalen-2-yl)thiazole-2-carboxamide]",0.0614 ± 0.00458,182 to 184,15.3 ± 2.81,21.5 ± 1.58,6.12 ± 1.38,30.3 ± 2.16,> 100,> 100,2.6
"O=C(Nc1ccc(Oc2ccnc(Cl)c2)c(F)c1)c1nc(-c2cccs2)cs1 [Compound 51aj, N-(4-((2-chloropyridin-4-yl)oxy)-3-fluorophenyl)-4-(thiophen-2-yl)thiazole-2-carboxamide]",0.0495 ± 0.00536,184 to 186,11.5 ± 2.17,17.5 ± 2.44,4.55 ± 0.91,25.9 ± 3.41,> 100,52.3 ± 3.74,2.1
"O=C(Nc1ccc(Oc2ccnc(Cl)c2)c(F)c1)c1nc(-c2ccc(F)c(Cl)c2)cs1 [Compound 51ak, 4-(3-Chloro-4-fluorophenyl)-N-(4-((2-chloropyridin-4-yl)oxy)-3-fluorophenyl)thiazole-2-carboxamide]",0.00389 ± 0.00052,168 to 170,1.81 ± 0.34,1.56 ± 0.32,0.22 ± 0.04,4.24 ± 0.68,13.2 ± 0.84,8.52 ± 1.35,
"COc1cc2nccc(Oc3ccc(NC(=O)c4nc(-c5ccc(F)cc5)cs4)cc3)c2cc1OC [Compound 51f, N-(4-((6,7-Dimethoxyquinolin-4-yl)oxy)phenyl)-4-(4-fluorophenyl)thiazole-2-carboxamide]",0.0291 ± 0.00353,84 to 86,14.7 ± 3.27,22.4 ± 1.94,4.95 ± 0.82,31.8 ± 2.56,,45.5 ± 3.83,
"COc1cc2nccc(Oc3ccc(NC(=O)c4nc(-c5ccccc5)cs4)cc3C)c2cc1OC [Compound 51n, N-(4-((6,7-Dimethoxyquinolin-4-yl)oxy)-3-methylphenyl)-4-phenylthiazole-2-carboxamide]",0.0456 ± 0.00603,136 to 138,17.5 ± 2.25,24.4 ± 2.14,7.21 ± 0.95,,> 100,> 100,
"COc1ccc(-c2csc(C(=O)Nc3ccc(Oc4ccnc(Cl)c4)c(F)c3)n2)cc1 [Compound 51y, N-(4-((2-Chloropyridin-4-yl)oxy)-3-fluorophenyl)-4-(4-methoxyphenyl)thiazole-2-carboxamide]",0.0367 ± 0.00297,191 to 193,9.28 ± 1.85,14 ± 2.26,3.22 ± 0.86,28.5 ± 2.35,,32.4 ± 1.98,

# — PMC10467532, “Design, synthesis, and biological evaluation of thiazole/thiadiazole carboxamide scaffold-based derivatives as potential c-Met kinase inhibitors for cancer treatment” (Journal of Enzyme Inhibition and Medicinal Chemistry, 2023)
